The values that follow come from ChEMBL document CHEMBL1150280, “Mono-tetrahydrofuran annonaceous acetogenins from Annona squamosa as cytotoxic agents and calcium ion chelators” (J Nat Prod, 2008).

For experiment [1], the system named is MCF7. In words: cells. The conditions noted are these: Homo sapiens, MCF7, 72 h.
Description: Cytotoxicity against human MCF7 cells after 3 days by MTT assay
The nature of experiment [2]: Cytotoxicity against human Hep3B cells after 3 days by MTT assay. The conditions noted are these: 72 h.
The test system of experiment [3] is MDA-MB-231. The experiment is described as follows: cells. The conditions noted are these: Homo sapiens, MDA-MB-231, 72 h.
Description: Cytotoxicity against human MDA-MB-231 cells after 3 days by MTT assay
Experiment [4] concerns HepG2. In words: Cytotoxicity against human HepG2 cells after 3 days by MTT assay. The conditions noted are these: HepG2, 72 h.
Experiment [5] concerns A549. In words: Cytotoxicity against human A549 cells after 3 days by MTT assay. The note with it: A549, 72 h.

Bounds are passed on as bounds.

In turn, `CCCCCCCCCC[C@@H](O)[C@H]1CC[C@H]([C@H](O)CCCCCCCCCCCCCCCCC2=C[C@H](C)OC2=O)O1` registered a half-maximal inhibitory concentration (IC50) in experiment [1] of 3.31 µM. In other words, the single-digit micromolar range.

For the molecule `CCCCCCCCCCCCCC[C@@H](O)[C@H]1CC[C@H]([C@H](O)CCCCCCCCCCCCC2=C[C@H](C)OC2=O)O1`, 28.3 µM corresponded to half-maximal inhibition in experiment [1] (IC50). Against the preceding molecule, the IC50 is about 8.5-fold higher.

`CCCCCCCCCC[C@@H](O)[C@H]1CC[C@@H]([C@@H](O)CCCCCCCCCCCCCCC2=C[C@H](C)OC2=O)O1` returned an IC50 in experiment [1] of 30.7 µM. The IC50 values of the last two molecules are within 1.5-fold of each other.

Turning to `CCCCCCCCCCCCC(O)C1CCC(C(O)CCCCCCCCCCCCCCC2=CC(C)OC2=O)O1` (stereo not given), in experiment [1], the midpoint of inhibition, the IC50, lay at 8.11 µM.

On to `CCCCCCCCCC/C=C\CC[C@@H](O)[C@H]1CC[C@H]([C@H](O)CCCCCCCCCCCCC2=C[C@H](C)OC2=O)O1` [BULLATENCIN], for which, in experiment [2], the half-maximal inhibitory concentration (IC50) is 31.4 µM.

`CC(=O)O[C@H]1C(=O)[C@@]2(C)[C@H]([C@H](OC(=O)c3ccccc3)[C@]3(O)C[C@H](OC(=O)[C@H](O)[C@@H](NC(=O)c4ccccc4)c4ccccc4)C(C)=C1C3(C)C)[C@]1(OC(C)=O)CO[C@@H]1C[C@@H]2O` [PACLITAXEL]: the IC50 amounted to 0.13 µM in experiment [2], 0.0703 µM in experiment [3] and 0.0468 µM in experiment [4].

In the case of `CCCCCCC(O)CCC[C@H](O)[C@H]1CC[C@H]([C@H](O)CC[C@@H](O)[C@H](O)CCCCCCCCCCCCC2=C[C@H](C)OC2=O)O1` (stereo not given in full) [SQUADIOLIN A], the IC50 in experiment [2] was 3.52 µM; in experiment [3], 0.63 µM; in experiment [4], 0.0056 µM; in experiment [1] it was 2.83 µM; in experiment [5] it was below 0.2 µM.

In the case of `CCCCCCCCCC[C@H](O)[C@@H](O)CC[C@H](O)[C@@H](O)CC[C@@H](O)[C@H]1CC[C@H](CCCCCCCCCC2=C[C@H](C)OC2=O)O1` [SQUADIOLIN B], the IC50 was 6.98 µM in experiment [2]; 0.28 µM in experiment [3]; 0.011 µM in experiment [4]; 5.47 µM in experiment [1]; 2.75 µM in experiment [5].

For the molecule `CCCCCCCCCCCC[C@H](O)[C@@H](O)CCCC[C@@H](O)[C@H]1CC[C@H](CCCCCCCC(O)CC2=C[C@H](C)OC2=O)O1` (stereo not given in full) [SQUADIOLIN C], the IC50 in experiment [3] is 14.5 µM; in experiment [4] it was 3.48 µM; in experiment [1], 3.62 µM; in experiment [5] it was 8.11 µM.

`CCCCCCC(O)C(O)CCCCCC[C@@H](O)[C@H]1CC[C@H]([C@H](O)CCCCCCCCCCCCC2=C[C@H](C)OC2=O)O1` (stereo not given in full) [SQUAFOSACIN B]: the half-maximal inhibitory concentration (IC50) was determined as 0.72 µM in experiment [2]; 17 µM in experiment [3]; 0.71 µM in experiment [4]; 0.96 µM in experiment [1]; 0.66 µM in experiment [5].

Take `CCCCCCCCCC[C@@H](O)[C@H]1CC[C@H]([C@H](O)CCCCCC(O)CCCCCCCCC2=C[C@H](C)OC2=O)O1` (stereo not given in full) [SQUAFOSACIN C]: the IC50 in experiment [2] was 14 µM; in experiment [3], 18.1 µM; in experiment [4], 18.9 µM; in experiment [1], 26.4 µM; in experiment [5], 21 µM.

With `CCCCCCCCCCCC[C@H](O)[C@H]1CC[C@@H]([C@@H](O)CCCCCCCCCCCCC2=C[C@H](C)OC2=O)O1` [SQUAFOSACIN F], the IC50 was above 36 µM in experiment [3] and 35.1 µM in experiment [1].

On to `CCCCCCCCCC[C@H](O)[C@H]1CC[C@@H]([C@@H](O)CCCCCCCCCCCCCCCCC2=C[C@H](C)OC2=O)O1` [SQUAFOSACIN G], for which the IC50 in experiment [1] stood at 29.8 µM.
